In test [1] the target is Receptor tyrosine-protein kinase erbB-4 (Homo sapiens, UniProt Q15303). Briefly: Selectivity interaction (Kinase panel (Z-LYTE Assay)) EUB0001632a ERBB4. The conditions noted are these: at 10 µM.
Test [2] deals with Diacylglycerol kinase alpha (Homo sapiens) (UniProt P23743). Briefly: Selectivity interaction (Kinase panel (KiNativ target engagement assay in Jurkat cells)) EUB0001635a DGKA. The format is cell-based. The following applies: Selectivity number of off-targets 0.0, Selectivity number of targets 233.0, Source Knowledge https://www.sciencedirect.com/science/article/pii/S2451945619300674?via%3Dihub, at 1 µM.

For test [3], the target named is Mitogen-activated protein kinase 6 (Homo sapiens) (UniProt Q16659). In words: Selectivity interaction (KinomeScan (DiscoverX)) EUB0000607a MAPK6. The following applies: at 10 µM.
The target of test [4] is Tyrosine-protein kinase JAK2 (Homo sapiens, UniProt O60674). Briefly: Selectivity interaction (KinomeScan (DiscoverX)) EUB0000666a JAK2. The conditions noted are these: at 10 µM.
In test [5] the target is T1, Ephrin type-B receptor 3 (Homo sapiens) (UniProt P54753).
T1 sequence (whole entry): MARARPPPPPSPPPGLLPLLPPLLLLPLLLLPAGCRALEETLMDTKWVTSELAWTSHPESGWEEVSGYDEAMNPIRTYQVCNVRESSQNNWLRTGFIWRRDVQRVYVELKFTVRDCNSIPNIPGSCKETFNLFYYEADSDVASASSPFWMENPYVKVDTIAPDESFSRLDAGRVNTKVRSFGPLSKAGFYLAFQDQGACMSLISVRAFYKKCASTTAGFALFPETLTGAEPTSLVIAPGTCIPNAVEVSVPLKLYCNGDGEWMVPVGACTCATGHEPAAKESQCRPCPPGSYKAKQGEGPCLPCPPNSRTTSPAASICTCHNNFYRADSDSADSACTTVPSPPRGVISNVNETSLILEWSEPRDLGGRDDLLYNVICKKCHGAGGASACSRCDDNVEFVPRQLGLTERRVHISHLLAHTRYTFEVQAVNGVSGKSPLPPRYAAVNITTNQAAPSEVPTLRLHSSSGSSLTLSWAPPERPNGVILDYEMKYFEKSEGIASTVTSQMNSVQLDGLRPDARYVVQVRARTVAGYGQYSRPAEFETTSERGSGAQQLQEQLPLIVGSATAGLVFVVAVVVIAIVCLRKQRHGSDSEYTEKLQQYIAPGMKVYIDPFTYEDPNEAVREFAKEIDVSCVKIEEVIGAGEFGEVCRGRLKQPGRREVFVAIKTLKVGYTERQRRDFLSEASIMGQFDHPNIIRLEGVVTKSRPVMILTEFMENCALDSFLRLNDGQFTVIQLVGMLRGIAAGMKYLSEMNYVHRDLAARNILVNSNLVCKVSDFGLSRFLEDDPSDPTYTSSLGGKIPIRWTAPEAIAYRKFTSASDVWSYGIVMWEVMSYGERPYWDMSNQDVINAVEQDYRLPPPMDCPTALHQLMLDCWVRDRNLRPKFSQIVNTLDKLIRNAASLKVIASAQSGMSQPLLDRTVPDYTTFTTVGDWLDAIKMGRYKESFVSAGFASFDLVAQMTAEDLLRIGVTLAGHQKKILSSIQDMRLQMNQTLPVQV
In words: Selectivity interaction (KinomeScan (DiscoverX)) EUB0000666a EPHB3. The following applies: at 10 µM.

Test [6] has as its target RAC-alpha serine/threonine-protein kinase (Homo sapiens, UniProt P31749). In words: Selectivity interaction (Kinase panel (literature)) EUB0001199aCl AKT1. The conditions noted are these: at 1 µM.
For test [7], the target named is Casein kinase I isoform epsilon (Homo sapiens, UniProt P49674). Briefly: Selectivity interaction (KinomeScan (DiscoverX)) EUB0001049a CSNK1E. The conditions noted are these: at 1 µM.
Test [8] relates to Epidermal growth factor receptor (Homo sapiens), P00533 [UNDEFINED MUTATION]. In words: Selectivity interaction (KinomeScan (DiscoverX)) EUB0001049a EGFR. The conditions noted are these: at 1 µM.
The target in test [9] is DNA (cytosine-5)-methyltransferase 1 (Homo sapiens) (UniProt P26358). Briefly: Selectivity interaction (Transferase panel (protein, RNA, and DNA methyltransferases. and EP300 (acetyltransferase))) EUB0000270b DNMT1.
Test [10] has as its target Wee1-like protein kinase 2 (Homo sapiens) (UniProt P0C1S8). In words: Selectivity interaction (KinomeScan (DiscoverX)) EUB0000045b WEE2.
Test [11] concerns the target T2, Serine/threonine-protein kinase TAO1 (Homo sapiens) (UniProt Q7L7X3).
T2 sequence (whole entry): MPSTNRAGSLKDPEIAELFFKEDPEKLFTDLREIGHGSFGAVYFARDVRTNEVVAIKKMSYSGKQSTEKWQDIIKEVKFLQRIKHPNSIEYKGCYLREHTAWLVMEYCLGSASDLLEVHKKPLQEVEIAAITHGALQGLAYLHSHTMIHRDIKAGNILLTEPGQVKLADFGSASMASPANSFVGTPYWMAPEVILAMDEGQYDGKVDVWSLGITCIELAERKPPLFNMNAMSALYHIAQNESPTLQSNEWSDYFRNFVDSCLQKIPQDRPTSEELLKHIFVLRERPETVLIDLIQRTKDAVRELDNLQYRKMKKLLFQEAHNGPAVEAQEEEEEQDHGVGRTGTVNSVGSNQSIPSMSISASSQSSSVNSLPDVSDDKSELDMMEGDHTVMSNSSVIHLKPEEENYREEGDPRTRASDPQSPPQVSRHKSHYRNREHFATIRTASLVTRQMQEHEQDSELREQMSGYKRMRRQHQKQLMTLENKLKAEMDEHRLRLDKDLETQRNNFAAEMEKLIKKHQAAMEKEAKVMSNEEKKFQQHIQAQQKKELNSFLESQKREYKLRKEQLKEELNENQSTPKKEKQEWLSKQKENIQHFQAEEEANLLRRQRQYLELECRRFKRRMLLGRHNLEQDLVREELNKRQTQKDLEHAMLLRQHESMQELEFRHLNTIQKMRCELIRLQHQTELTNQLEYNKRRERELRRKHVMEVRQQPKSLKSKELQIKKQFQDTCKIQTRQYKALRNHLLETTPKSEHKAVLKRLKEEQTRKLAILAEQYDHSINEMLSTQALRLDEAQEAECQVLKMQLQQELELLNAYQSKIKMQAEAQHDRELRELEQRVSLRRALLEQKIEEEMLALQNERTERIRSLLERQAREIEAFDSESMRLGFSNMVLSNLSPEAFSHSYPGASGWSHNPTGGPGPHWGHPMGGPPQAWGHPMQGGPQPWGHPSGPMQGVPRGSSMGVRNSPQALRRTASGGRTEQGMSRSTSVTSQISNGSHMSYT
Briefly: Selectivity interaction (KinomeScan (DiscoverX)) EUB0000045b TAOK1.

A value given as a limit tells only on which side of the number the result lay.

Sequence of DNA (cytosine-5)-methyltransferase 1 (Homo sapiens) (P26358 whole entry): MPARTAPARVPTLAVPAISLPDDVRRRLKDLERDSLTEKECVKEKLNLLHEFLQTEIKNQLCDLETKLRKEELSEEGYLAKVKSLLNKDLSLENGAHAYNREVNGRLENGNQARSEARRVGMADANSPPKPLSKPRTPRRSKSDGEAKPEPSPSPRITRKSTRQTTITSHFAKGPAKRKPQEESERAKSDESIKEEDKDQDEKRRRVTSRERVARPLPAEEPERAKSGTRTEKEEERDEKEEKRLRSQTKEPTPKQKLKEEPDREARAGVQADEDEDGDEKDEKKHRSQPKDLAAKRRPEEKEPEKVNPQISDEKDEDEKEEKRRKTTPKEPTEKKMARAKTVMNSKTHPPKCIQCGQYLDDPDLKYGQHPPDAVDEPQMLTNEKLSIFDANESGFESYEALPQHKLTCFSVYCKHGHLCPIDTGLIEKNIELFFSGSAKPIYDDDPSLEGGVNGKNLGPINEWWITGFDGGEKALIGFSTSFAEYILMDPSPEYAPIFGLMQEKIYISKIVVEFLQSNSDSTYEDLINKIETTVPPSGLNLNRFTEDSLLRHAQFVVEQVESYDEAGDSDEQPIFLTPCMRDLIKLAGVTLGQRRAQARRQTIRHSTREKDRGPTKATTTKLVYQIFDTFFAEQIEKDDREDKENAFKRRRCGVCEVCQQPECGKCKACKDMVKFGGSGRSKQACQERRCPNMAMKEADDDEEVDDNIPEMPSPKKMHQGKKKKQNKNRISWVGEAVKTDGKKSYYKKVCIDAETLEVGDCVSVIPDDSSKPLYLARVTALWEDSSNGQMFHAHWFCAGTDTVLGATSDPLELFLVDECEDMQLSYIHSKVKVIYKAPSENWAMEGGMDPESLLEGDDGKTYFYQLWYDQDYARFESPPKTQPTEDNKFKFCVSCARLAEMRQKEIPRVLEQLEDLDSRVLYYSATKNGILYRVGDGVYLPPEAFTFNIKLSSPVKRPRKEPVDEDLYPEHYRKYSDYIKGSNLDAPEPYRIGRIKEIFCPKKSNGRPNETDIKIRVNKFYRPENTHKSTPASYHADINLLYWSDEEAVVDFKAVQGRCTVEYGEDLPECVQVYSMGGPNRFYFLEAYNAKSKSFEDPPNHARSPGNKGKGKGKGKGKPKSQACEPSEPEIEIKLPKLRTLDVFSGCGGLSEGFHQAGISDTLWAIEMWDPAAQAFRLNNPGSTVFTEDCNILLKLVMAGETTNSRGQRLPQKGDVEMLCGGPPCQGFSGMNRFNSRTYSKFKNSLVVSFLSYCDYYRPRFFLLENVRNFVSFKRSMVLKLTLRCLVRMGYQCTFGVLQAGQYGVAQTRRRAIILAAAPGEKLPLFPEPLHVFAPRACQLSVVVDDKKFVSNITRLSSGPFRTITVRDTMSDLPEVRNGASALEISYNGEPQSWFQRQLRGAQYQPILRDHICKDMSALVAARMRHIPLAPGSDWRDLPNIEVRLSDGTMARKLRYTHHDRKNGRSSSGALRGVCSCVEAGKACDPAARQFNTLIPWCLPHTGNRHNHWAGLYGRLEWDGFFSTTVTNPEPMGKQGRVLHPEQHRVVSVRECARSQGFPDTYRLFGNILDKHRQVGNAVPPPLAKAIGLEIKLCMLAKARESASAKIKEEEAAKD
Sequence of Wee1-like protein kinase 2 (Homo sapiens) (P0C1S8 whole entry, looked up): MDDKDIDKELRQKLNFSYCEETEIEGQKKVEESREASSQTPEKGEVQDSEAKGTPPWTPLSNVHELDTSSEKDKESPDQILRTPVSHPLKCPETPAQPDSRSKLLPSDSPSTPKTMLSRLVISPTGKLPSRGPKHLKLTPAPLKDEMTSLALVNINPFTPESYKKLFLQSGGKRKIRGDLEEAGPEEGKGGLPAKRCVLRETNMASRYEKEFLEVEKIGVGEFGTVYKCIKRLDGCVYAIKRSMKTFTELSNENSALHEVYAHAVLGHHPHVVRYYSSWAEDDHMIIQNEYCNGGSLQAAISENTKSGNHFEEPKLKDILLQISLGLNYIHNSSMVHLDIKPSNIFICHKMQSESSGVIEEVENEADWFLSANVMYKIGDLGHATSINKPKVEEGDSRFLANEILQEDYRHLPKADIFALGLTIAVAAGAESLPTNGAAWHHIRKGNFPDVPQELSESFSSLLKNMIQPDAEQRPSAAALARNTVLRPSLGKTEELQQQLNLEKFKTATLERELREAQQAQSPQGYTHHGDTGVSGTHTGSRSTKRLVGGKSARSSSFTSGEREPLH
Sequence of Mitogen-activated protein kinase 6 (Homo sapiens) (Q16659 whole entry): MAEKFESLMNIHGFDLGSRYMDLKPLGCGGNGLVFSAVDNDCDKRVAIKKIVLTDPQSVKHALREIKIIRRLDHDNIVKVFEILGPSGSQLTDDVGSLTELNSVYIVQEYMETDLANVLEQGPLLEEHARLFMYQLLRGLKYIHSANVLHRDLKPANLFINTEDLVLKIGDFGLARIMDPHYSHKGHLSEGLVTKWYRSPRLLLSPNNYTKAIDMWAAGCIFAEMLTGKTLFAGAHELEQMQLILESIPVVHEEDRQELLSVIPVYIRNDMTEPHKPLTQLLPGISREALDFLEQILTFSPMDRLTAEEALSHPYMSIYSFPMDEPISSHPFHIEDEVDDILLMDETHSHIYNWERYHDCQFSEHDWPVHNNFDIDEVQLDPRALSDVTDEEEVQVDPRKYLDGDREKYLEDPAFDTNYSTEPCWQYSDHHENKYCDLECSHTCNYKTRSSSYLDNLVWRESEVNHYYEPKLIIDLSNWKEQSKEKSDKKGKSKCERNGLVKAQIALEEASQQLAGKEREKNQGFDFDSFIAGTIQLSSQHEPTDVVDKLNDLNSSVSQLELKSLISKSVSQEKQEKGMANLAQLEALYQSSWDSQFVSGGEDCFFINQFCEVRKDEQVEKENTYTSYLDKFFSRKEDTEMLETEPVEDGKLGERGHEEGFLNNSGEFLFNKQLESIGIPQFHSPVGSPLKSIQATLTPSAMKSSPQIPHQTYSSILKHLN
Sequence of Casein kinase I isoform epsilon (P49674 whole entry, looked up, canonical isoform): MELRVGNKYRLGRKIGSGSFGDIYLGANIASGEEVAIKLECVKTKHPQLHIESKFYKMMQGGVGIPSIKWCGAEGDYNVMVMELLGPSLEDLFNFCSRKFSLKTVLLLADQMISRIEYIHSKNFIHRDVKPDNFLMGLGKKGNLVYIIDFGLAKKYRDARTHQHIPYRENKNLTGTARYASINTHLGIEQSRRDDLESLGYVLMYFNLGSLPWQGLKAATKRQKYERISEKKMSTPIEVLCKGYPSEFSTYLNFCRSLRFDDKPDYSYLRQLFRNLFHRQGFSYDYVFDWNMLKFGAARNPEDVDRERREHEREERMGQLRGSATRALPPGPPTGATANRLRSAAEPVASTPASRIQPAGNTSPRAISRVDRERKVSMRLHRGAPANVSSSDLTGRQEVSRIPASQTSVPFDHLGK
Sequence of RAC-alpha serine/threonine-protein kinase (P31749 whole entry, canonical isoform): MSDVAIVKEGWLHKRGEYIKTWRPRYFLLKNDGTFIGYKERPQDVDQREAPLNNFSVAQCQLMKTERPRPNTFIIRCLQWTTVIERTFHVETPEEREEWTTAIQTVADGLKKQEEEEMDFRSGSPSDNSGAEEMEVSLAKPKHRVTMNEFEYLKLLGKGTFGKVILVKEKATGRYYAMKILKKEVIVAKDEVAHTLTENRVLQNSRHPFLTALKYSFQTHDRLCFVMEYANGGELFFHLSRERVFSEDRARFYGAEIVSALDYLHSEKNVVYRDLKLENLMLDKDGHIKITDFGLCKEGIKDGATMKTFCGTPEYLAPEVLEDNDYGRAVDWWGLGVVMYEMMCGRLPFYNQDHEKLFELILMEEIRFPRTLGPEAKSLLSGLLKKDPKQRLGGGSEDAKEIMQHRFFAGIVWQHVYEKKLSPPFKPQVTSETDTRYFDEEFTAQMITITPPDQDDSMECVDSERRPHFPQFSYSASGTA
Sequence of Epidermal growth factor receptor (Homo sapiens), P00533 [UNDEFINED MUTATION] (P00533 whole entry, looked up, change not shown): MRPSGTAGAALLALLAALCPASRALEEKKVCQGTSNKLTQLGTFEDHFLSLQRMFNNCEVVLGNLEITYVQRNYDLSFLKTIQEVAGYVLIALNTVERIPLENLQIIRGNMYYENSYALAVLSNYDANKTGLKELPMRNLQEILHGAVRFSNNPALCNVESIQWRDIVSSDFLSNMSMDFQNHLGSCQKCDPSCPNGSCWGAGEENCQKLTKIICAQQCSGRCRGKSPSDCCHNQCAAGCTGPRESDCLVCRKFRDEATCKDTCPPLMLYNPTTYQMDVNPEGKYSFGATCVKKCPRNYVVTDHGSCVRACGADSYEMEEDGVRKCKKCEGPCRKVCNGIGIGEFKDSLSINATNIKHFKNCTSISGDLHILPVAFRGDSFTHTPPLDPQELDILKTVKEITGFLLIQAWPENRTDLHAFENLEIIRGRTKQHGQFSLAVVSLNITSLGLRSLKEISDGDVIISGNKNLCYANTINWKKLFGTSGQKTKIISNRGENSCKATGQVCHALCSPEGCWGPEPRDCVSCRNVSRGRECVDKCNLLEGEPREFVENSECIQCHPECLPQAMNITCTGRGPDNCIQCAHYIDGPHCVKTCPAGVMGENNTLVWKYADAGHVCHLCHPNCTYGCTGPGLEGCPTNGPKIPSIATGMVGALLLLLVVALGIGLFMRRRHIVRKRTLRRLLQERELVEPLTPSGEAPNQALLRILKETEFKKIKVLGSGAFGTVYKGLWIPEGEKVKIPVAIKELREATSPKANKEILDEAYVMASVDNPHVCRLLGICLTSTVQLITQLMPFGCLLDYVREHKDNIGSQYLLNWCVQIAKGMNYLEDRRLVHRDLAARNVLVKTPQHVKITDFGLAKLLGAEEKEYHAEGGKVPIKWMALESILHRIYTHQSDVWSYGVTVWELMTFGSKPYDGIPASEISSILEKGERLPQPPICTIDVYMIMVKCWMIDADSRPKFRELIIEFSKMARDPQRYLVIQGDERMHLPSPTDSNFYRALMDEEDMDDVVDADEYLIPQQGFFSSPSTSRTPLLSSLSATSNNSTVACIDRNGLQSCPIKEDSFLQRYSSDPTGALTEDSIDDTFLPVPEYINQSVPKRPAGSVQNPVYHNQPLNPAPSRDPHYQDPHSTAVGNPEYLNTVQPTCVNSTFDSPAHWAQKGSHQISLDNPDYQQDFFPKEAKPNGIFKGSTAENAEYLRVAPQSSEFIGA

Turning to `Cn1cc(-n2cnc3c(NCc4nc5cc(Cl)c(Cl)cc5[nH]4)nc(N4CCOCC4)nc32)cn1`, in test [1], the % of control is -13.3%. `C=CC(=O)Nc1ccc(C(=O)Nc2[nH]nc3c2CN(C(=O)N[C@H](CN(C)C)c2ccccc2)C3(C)C)cc1`: the % of engagement in test [2] is -18.9%. Consider `CNC(=O)Nc1ccc(-c2nc(N3CC4CCC(C3)O4)c3cnn(C4CCC5(CC4)OCCO5)c3n2)cc1`, for which the % of control in test [3] is 85%. `O=C(NOC[C@H](O)CO)c1ccc(F)c(F)c1Nc1ccc(I)cc1F`: the values for the % of control in test [4] and in test [5] were 100% and 89%, respectively. The molecule `CN1Cc2nccc(-c3cn(C)nc3-c3ccc(F)cc3)c2C1=O` came in with a % of inhibition in test [6] of 1%. Regarding `COc1cc(Nc2nc(C)cc(-c3cnn4nc(OC)ccc34)n2)cc(C(F)(F)F)c1`, the % of control turned out to be 80% in test [7] and 100% in test [8].

Turning to `Cc1cc(CN)cc(C)c1-c1ncn(C)c1-c1cncn1C`, the figures for the % activity in test [9] (at 1 µM) and in test [9] (at 10 µM) were greater than 90% and greater than 80%, respectively. As to `C=CC(=O)Nc1cc(-n2c(=O)ccc3cnc4ccc(-c5ccc(NS(C)(=O)=O)cc5)cc4c32)ccc1C`, the % of control in test [10] (at 1 µM) stood at 66%; in test [10] (at 10 µM), 100%; in test [11] (at 1 µM), 100%; in test [11] (at 10 µM) it was 79%.

The values are drawn from ChEMBL document CHEMBL5465560, “Selectivity Literature for EUbOPEN Chemogenomic Library” (2024).
